Results reported in patent publication US11471472B2, “Use of verbascoside in preparation of drug for preventing or treating glomerular podocyte injured renal disease” (SICHUAN MEDCO PHARMACEUTICAL STOCK CO., LTD., priority 2017, dated 2022).

Columns and labels:
nephrin [1] = assay: Nephrin protein expression in puromycin-induced podocyte damage (western blot); format: cell-based, mouse; settings: 24 hours
Description: A mouse podocyte line MPC5 was offered by professor Peter Mundel from Mount Sinai Medical School, New York, USA. After recovery, podocytes were placed in a 33° C., 5% CO2 cell incubator to be cultured for proliferation thereof. When a fusion degree thereof reached about 80%, the podocytes were transferred into a 37° C. incubator to be differentiated for 10-14 days such that the podocytes were differentiated to be mature. After the podocytes were differentiated to be mature, the podocytes were inoculated in a 6-well plate, and after the podocytes adhered to the wall, puromycin and verbascoside were added into the plate to stimulate the podocytes for 24 hours, and then proteins or RNAs were collected for later detection. […]

mouse podocyte line MPC5 [2] = assay: Phalloidin staining of podocyte cytoskeletal microfilamentous proteins; format: cell-based; settings: puromycin-treated podocytes
Description: (§1) A mouse podocyte line MPC5 was offered by professor Peter Mundel from Mount Sinai Medical School, New York, USA. After recovery, podocytes were placed in a 33° C., 5% CO2 cell incubator to be cultured for proliferation thereof. When a fusion degree thereof reached about 80%, the podocytes were transferred into a 37° C. incubator to be differentiated for 10-14 days such that the podocytes were differentiated to be mature. After the podocytes were differentiated to be mature, the podocytes were inoculated in a 6-well plate, and after the podocytes adhered to the wall, puromycin and verbascoside were added into the plate to stimulate the podocytes for 24 hours, and then proteins or RNAs were collected for later detection.
The kidney tissue was sliced. First, slices were subjected to xylene and gradient alcohol deparaffinization, followed by antigen retrieval, and then punched with 0.3% Triton-PBS. […] The mixture was rinsed with deionized water, mounted with 50% buffered glycerol, edge sealed with nail polish, observed under a fluorescence microscope, and photographed. […]

podocyte foot process = assay: Podocyte foot process under electron microscope in puromycin-induced nephropathic rat models; format: in vivo, Sprague-Dawley rats; settings: 20th day; 10 mg/kg intragastrically every day
Description: (§2) The animal experiment was approved by Animal Ethics Committee of Peking University First Hospital, with Resolution No.: J201644. 51 male Sprague-Dawley rats (6 weeks) of the same batch were purchased from Beijing Charles River Company, raised at the animal center of Peking University First Hospital (clean grade), and randomly divided into 3 groups after 3 days of acclimation:
(§3) In the above, groups 2 and 3 were intraperitoneally subjected to single injection of puromycin (Sigma P7130) by 15 mg/100 g at day 0 of the experiment. The normal control group was intraperitoneally injected with the same dosage of physiological saline. Group 3 was intragastrically treated with 10 mg/kg verbascoside every day, and groups 1 and 2 were intragastrically treated with the same dosage of injection water every day. In the experiment process, 24-hour urine of the rats was collected respectively before the administration (Day 0), and at the 5th day, the 10th day, the 15th day, and the 20th day (Day 5, Day 10, Day 15, and Day 20) after the administration, for quantitative measurement of urine protein (Hitachi 7170A full-automatic biochemical analyzer). […]

mouse podocyte line MPC5 [3] = assay: Detection of podocyte activity with MTS in puromycin-induced podocyte damage; format: cell-based; settings: 24 h
Description: as §1
After subculturing and counting the podocytes, the podocytes were uniformly inoculated into a 96-well plate at a density of 1.0×10^5/mL, after the cells adhered to the wall, puromycin and verbascoside were respectively added to treat the podocytes, then after 24 h, the culture medium was discarded, a culture medium containing MTS (Promega G1112) was added with the MTS content of 10 μl MTS per 100 μl of the culture medium, the 96-well plate added with the MTS was placed in a light-tight environment at 37° C. for 4 h and then taken out, and an OD value was measured at 490 nm wavelength using the ELIASA.

mouse podocyte line MPC5 [4] = assay: Cell migration (scratch) experiment in puromycin-treated podocytes; format: cell-based; settings: 24 hours after scratch
Description: as §1
The differentiated podocytes were inoculated on a 6-well plate coated with rat type I collagen, and when the fusion degree thereof reached 60%, a line was scratched on a baseboard using a 200 μL sterile high-pressure gun tip, then the plate was flushed clean using PBS and a clean culture medium was used in replacement, which time was served as the 0th hour, and a photo was taken by an inverted microscope, then a corresponding drug was added for intervention, then after 24 hours, a photo was taken again, and finally analysis was made using ImageJ software. The final result was expressed by percentage of coverage.

[5] = system: rats suffering from puromycin-caused nephropathy; assay: 24-hour urine protein in rats suffering from puromycin-caused nephropathy; format: in vivo, Sprague-Dawley rats; settings: 10 mg/kg verbascoside intragastrically every day
Text: as §2
1. normal control group (CON)
2. puromycin disease group (PAN)
3. puromycin+verbascoside-treated group (PAN+ACT)
In the above, groups 2 and 3 were intraperitoneally subjected to single injection of puromycin (Sigma P7130) by 15 mg/100 g at day 0 of the experiment. The normal control group was intraperitoneally injected with the same dosage of physiological saline. Group 3 was intragastrically treated with 10 mg/kg verbascoside every day, and groups 1 and 2 were intragastrically treated with the same dosage of injection water every day. In the experiment process, 24-hour urine of the rats was collected respectively before the administration (Day 0), and at the 5th day, the 10th day, the 15th day, and the 20th day (Day 5, Day 10, Day 15, and Day 20) after the administration, for quantitative measurement of urine protein (Hitachi 7170A full-automatic biochemical analyzer). The rats were sacrificed at the 20th day (Day 20) after the injection of puromycin, and kidney specimens were collected, which were subsequently used for extracting protein, extracting RNA, taking paraffin-embedded and frozen specimens, and separating glomeruli.
In order to determine the therapeutic effect of verbascoside on the rats suffering from puromycin-caused nephropathy, the rats were divided into 3 groups, normal control group (CON), disease group (PAN), and verbascoside group (PAN+ACT). 24-hour urine of the rats in each group were sampled every 5 days. The effect of verbascoside for treating the nephropathic proteinuria level was reflected by collecting and detecting blood and urine samples of the rats in each group.

nephrin [6] = assay: Nephrin gene and protein expression in glomeruli of puromycin-induced nephropathic rats (western, real-time quantitative PCR); format: in vivo, Sprague-Dawley rats; settings: 20th day, 10 mg/kg intragastrically every day
Description: as §2, §3

synaptopodin = assay: Synaptopodin immunofluorescence of kidney tissue in puromycin-induced nephropathic rats; format: in vivo, Sprague-Dawley rats; settings: 20th day, 10 mg/kg intragastrically every day
Description: as §2, §3
The kidney tissue was sliced. […] The mixture was rinsed with deionized water, mounted with 50% buffered glycerol, edge sealed with nail polish, observed under a fluorescence microscope, and photographed. […]

What does the source list for Verbascoside?
nephrin expression (protein) (nephrin [1]): improved; arrangement of the cytoskeletons (phalloidin) (mouse podocyte line MPC5 [2]): restored; podocyte foot process fusion (electron microscope) (podocyte foot process): recovered apparently; podocyte viability (MTS, OD 490 nm) (mouse podocyte line MPC5 [3]): recovered; podocyte migration capability (percentage of coverage) (mouse podocyte line MPC5 [4]): restored; 24-hour urine protein vs puromycin group ([5]; 5th day, puromycin 15 mg/100 g i.p.): not significantly different; 24-hour urine protein vs disease group ([5]; 10th day, puromycin 15 mg/100 g i.p.): decreased significantly; 24-hour proteinuria abnormality ([5]; 15th day): remarkably relieved; 24-hour proteinuria abnormality ([5]; 20th day): remarkably relieved; nephrin gene expression level (real-time quantitative PCR) (nephrin [6]): increased; nephrin protein expression level (western) (nephrin [6]): increased; synaptopodin fluorescence intensity (synaptopodin): recovered
